According to US4032529A, “Aminomethanobenzazocine intermediates” (Sterling Drug Inc., priority 1975, dated 1977):
Structures can show the parent of a compound that is named as a salt.

Tested on: acetylcholine-induced writhing in mice
Assay: acetylcholine writhing test, a primary screening test for analgesia
Type: in vivo
Settings: Mus musculus, sc, 20 min; subcutaneous; mice dosed 20 minutes prior to acetylcholine 3.2 mg./kg. intraperitoneal; 2-minute observation; probit analysis
Experimental: All of the compounds of Formula I of the examples were tested and determined to be active in the acetylcholine writhing test, a primary screening test for analgesia. In this test the ability of test compounds to prevent acetylcholine-induced writhing in mice is determined. The following is an adaptation of the method of Collier and co-workers (Brit. J. Pharmacol. Chemother., 32, 295(1968)) by Anne K. Pierson. […] The mice are dosed with the test compound plus vehicle or vehicle alone (controls) 20 minutes prior to, and are observed for 2 minutes after, the acetylchloine injection. During the 2-minute observation period mice not responding by writhing are scored protected and mice responding by writhing one or more times are scored not protected. The mice are dosed orally (usually at 150-200 mg./kg.) or subcutaneously (usually at 75-100 mg./kg.). Fifteen mice per does level are used. ED50 values for active compounds are calculated by probit analysis (C. I. Bliss, The Statistics of Bioassay, Academic Press, New York, 1952) of quantal scores of tests at four or more appropriate dose levels. The following subcutaneous ED50 values for the compounds of Formula I of the examples were determined.

With `CCCN1CC[C@]2(C)c3cc(N)ccc3C[C@H]1[C@H]2C` (relative stereo) [Example 6C, 8-amino-cis-6,11-dimethyl-1,2,3,4,5,6-hexahydro-3-propyl-2,6-methano-3-benzazocine dihydrochloride sesquihydrate] as the molecule, how does the ED50 read?
The ED50 was 5.6 mg/kg.

For `C[C@@H]1[C@@H]2Cc3ccc(NCc4ccccc4)cc3[C@@]1(C)CCN2CC1CC1` (relative stereo) [Example 7, 3-(cyclopropylmethyl)-1,2,3,4,5,6-hexahydro-cis-6,11-dimethyl-8-benzylamino-2,6-methano-3-benzazocine dihydrochloride], which ED50 is on record?
Its ED50 is 1.6 mg/kg.

Which ED50 does the source give for `C[C@@H]1[C@@H]2Cc3ccc(NCC4CC4)cc3[C@@]1(C)CCN2CC1CC1` (relative stereo) [Example 2E, 3-(cyclopropylmethyl)-8-(cyclopropylmethylamino)-1,2,3,4,5,6-hexahydro-cis-6,11-dimethyl-2,6-methano-3-benzazocine hydrochloride] here?
The ED50 was 0.7 mg/kg.

Which ED50 does the source give for `CC[C@@H]1[C@@H]2Cc3ccc(N)cc3[C@@]1(CC)CCN2CC1CC1` (relative stereo) [Example 12H, 8-amino-3-(cyclopropylmethyl)-cis-6,11-diethyl-1,2,3,4,5,6-hexahydro-2,6-methano-3-benzazocine dihydrochloride] here?
The ED50 was 1.3 mg/kg.

How did the ED50 turn out when `CNc1ccc2c(c1)[C@@]1(C)CCN(CC3CC3)[C@@H](C2)[C@H]1C` (relative stereo) [Example 3B, 3-(cyclopropylmethyl)-1,2,3,4,5,6-hexahydro-cis-6,11-dimethyl-8-(methylamino)-2,6-methano-3-benzazocine dihydrochloride ethanolate hydrate] was run?
Its ED50 is 0.44 mg/kg.

How did the ED50 turn out when `C=CCN1CC[C@]2(C)c3cc(N)ccc3C[C@H]1[C@H]2C` (relative stereo) [Example 8C, 8-amino-1,2,3,4,5,6-hexahydro-cis-6,11-dimethyl-3-(2-propenyl)-2,6-methano-3-benzazocine dihydrochloride] was run?
Its ED50 is 2.5 mg/kg.

`CCCCNc1ccc2c(c1)[C@@]1(C)CCN(CC3CC3)[C@@H](C2)[C@H]1C` (relative stereo) [Example 11B, 8-(butylamino)-3-(cyclopropylmethyl)-1,2,3,4,5,6-hexahydro-cis-6,11-dimethyl-2,6-methano-3-benzazocine] was tested. Which ED50 did it give?
Its ED50 is 1 mg/kg.

Which ED50 does the source give for `CCNc1ccc2c(c1)[C@@]1(C)CCN(CC3CC3)[C@@H](C2)[C@H]1C` (relative stereo) [Example 9B, 3-(cyclopropylmethyl)-8-(ethylamino)-1,2,3,4,5,6-hexahydro-cis-6,11-dimethyl-2,6-methano-3-benzazocine] here?
The ED50 was 1.3 mg/kg.

How did the ED50 turn out when `CCCNc1ccc2c(c1)[C@@]1(C)CCN(CC3CC3)[C@@H](C2)[C@H]1C` (relative stereo) [Example 10B, 3-(cyclopropylmethyl)-1,2,3,4,5,6-hexahydro-cis-6,11-dimethyl-8-(propylamino)-2,6-methano-3-benzazocine] was run?
The ED50 was 1.2 mg/kg.

With `C[C@@H]1[C@@H]2Cc3ccc(N)cc3[C@@]1(C)CCN2CC1CC1` (relative stereo) [Example 1B, 8-amino-3-(cyclopropylmethyl)-1,2,3,4,5,6-hexahydro-cis-6,11-dimethyl-2,6-methano-3-benzazocine dihydrochloride] as the molecule, how does the ED50 read?
Its ED50 is 0.8 mg/kg.

For `CC(C)CN1CC[C@]2(C)c3cc(N)ccc3C[C@H]1[C@H]2C` (relative stereo) [Example 5C, 8-amino-1,2,3,4,5,6-hexahydro-3-isobutyl-cis-6,11-dimethyl-2,6-methano-3-benzazocine dihydrochloride], which ED50 is on record?
The ED50 was 1.5 mg/kg.

How did the ED50 turn out when `C[C@@H]1[C@@H]2Cc3ccc(N(C)C)cc3[C@@]1(C)CCN2CC1CC1` (relative stereo) [Example 4F, 3-cyclopropylmethyl-8-dimethylamino-cis-6,11-dimethyl-1,2,3,4,5,6-hexahydro-2,6-methano-3-benzazocine dihydrochloride] was run?
The ED50 was 0.79 mg/kg.
